According to patent US8859235B2, “Methods in cell cultures, and related inventions, employing certain additives” (priority 2009, dated 2014):

Columns and labels:
Type in all cases: cell-based, Escherichia coli
E. coli BL21 = test: Growth and GFPuv expression in E. coli BL21 (DE3), shake flask batch culture in complex medium
Method: (§1) The measurement of GFP expression by whole cell fluorescence measurements follows the procedure of Scholz et al. (Eur. J. Biochem., 2000,267, 1565-1570). Frozen cell pellets are thawed, resuspended in 1 mL PBS [NaCl (8 g/L), KCl (0.2), of Na2HPO4 (1.44), KH2PO4 (0.24), adjusted to pH 7.4] and subsequently diluted to an optical density of 0.1. GFP fluorescence of whole cells is measured in a Eclipse Fluorometer (Varian) with an excitation wavelength of 400 nm and an emission wavelength of 512 nm. Specific relative fluorescence [RFU/OD600] is calculated by dividing the relative fluorescence emmision units by the optical density of the suspension at 600 nm.
Precultures are prepared in 250 mL baffled shake flasks containing 25 mL sterile LB medium [Tryptone (10.0 g/L), yeast extract (5.0), NaCl (10.0), kanamycin 30 (mg/L); adjusted to pH 7.0 with NaOH]. Cultures are inoculated with 250 μL of a glycerol stock stored at −80° C. of E. coli BL21 [Novagen, Madison, USA; Genotype: E ompT hsdSB (rB^− mB^−) gal dcm (DE3)] harboring the plasmid pET28a-GFPuv which is obtained by inserting the GFPuv gene (isolated from pBAD-GFPuv through PCR) into the EcoRI site of pET28a (Novagen, Madison, USA) which placed the GFPuv gene under the control of the T7/Lac promotor system. Precultures are incubated at 37° C. for 10-12 h.
Experimental cultures are performed in a volume of 25 mL of the above described medium in 250 mL baffled shake flasks. Stabilizers are added to a final concentration of 5 mM as indicated from sterile stock solutions. Cultures are started by inoculating with the preculture to an OD600 at 600 nm of 0.25. Samples are taken for OD600 measurements. Cultures are induced by adding IPTG (Isopropyl-β-D-thiogalactoside) to a final concentration of 0.5 mM when the OD600 reaches 0.5. Samples of 1 mL are taken after induction for OD600 reading and GFP quantification. For GFP quantification 1 mL of the culture is harvested after 2-4 h and after 20 h after induction. Cells are collected by centrifugation at 16 000 g and the cell pellet is stored at −20° C. for further analysis. Analysis of in vivo GFP fluorescence is performed by the method described in Example 1.

E. coli HM125 = test: Growth and expression of FimH-CRD in E. coli HM125, shake flask cultivation in mineral medium; conditions: for mg FimH/g cell: control 0.81; for FimH / Cell pellet: mean of triplicate; for FimH: control 6.48 ± 0.36; for Cell pellet: control 7.99 ± 0.25
Excerpt: Standard molecular techniques are used for the cloning of the FimH carbohydrate recognition domain (FimH-CRD). The plasmid pfimHs-trc, encoding FimH lectin domain (1-156 amino acids M. Vetsch P et. al. 2002—J. Mol. Biol. 322: 827-840), is kindly provided by R. Glockshuber (ETH Zürich, Switzerland). The FimH-CRD fragment is amplified by polymerase chain reaction using specific forward primer containing the restriction site NdeI and a specific reverse primer containing the thrombin cleavage site and the restriction site XhoI, respectively. The insert is ligated into the corresponding cloning site in pET21b. The resulting contrast is named pET21b-FimH-CRD.
Precultures are prepared in 25 mL sterile LB medium [Tryptone (10.0 g/L), yeast extract (5.0 g/L), NaCl (10.0 g/L), ampicillin 100 (mg/L); adjusted to pH 7.0 with NaOH]. Cultures are inoculated with a glycerol stock stored at −80° C. of the protease deficient strain E. coli HM125 (Meerman H J & Georgiou G. 1994. Biotechnology (NY) 2, 1107-1110) harboring the plasmid pET21b-FimH-CRD Vector. Precultures are incubated at 37° C. for 10-12 h. Experimental cultures are performed in a volume of 500 mL of modified M9 medium [Na2HPO4×7H2O (12.8 g/L), KH2PO4 (3 g/L), NaCl (0.5 g/L), NH4Cl (1 g/L), D-glucose (4 g/L), MgSO4 (0.12 g/L), CaCl2 (0.01 g/L) and vitamins (in mg/L): riboflavin (0.1), choline chloride (1), folic Acid (1), niacinamide (1), p-amino benzoic acid (1), pyridoxal-HCl (1), thiamine-HCl (1), myo-lnositol (2)] supplemented with 100 mg/L ampicillin. Cultures are inoculated with 5 mL of the preoculture and grown at 30° C. and 150 rpm) until the optical density at 600 nm (0D600) reached 0.8-1.0. Then 1 mM IPTG and the stabilizer(s) (obligatory additive) according to the invention are added to final concentrations of 5, 10 and 20 mM as indicated from sterile stock solutions and the cultures are grown overnight. Then the cells are cooled on ice for 5 min and harvested by centrifugation at 5′000 rpm for 20 min at 4° C. Cell are harvested by centrifugation and biomass is quantified by weighing the wet cell pellets. The pellet is suspended in a cold solution of 50 mM Tris-HCl, pH 7.5, 150 mM NaCl, 5 mM EDTA, 1 mg/mL polymyxin B sulfate and stirred for two hours at 4° C. After centrifugation at 11′000 rpm for 20 min at 4° C., the supernatant (periplasmic extract) is dialyzed overnight against 50 mM NaH2PO4, 300 mM NaCl and 10 mM imidazole, pH 8 (binding buffer) and applied to a Ni-NTA column (Sigma, Buchs, Switzerland) attached to a BioLogic fast protein liquid chromatography system (BioRad, Reinach BL, Switzerland). The column is washed with binding buffer and afterwards eluted with 50 mM NaH2PO4, 300 mM NaCl and 250 mM imidazole, pH 8 (elution buffer). Fractions containing FimH-CRD-Th-6H is are pooled and dialyzed against water and then against 20 mM HEPES, 150 mM NaCl and 1 mM CaCl2, pH 7.4.
The concentration of protein is determined by HPLC method (Agilent 1100/1200 series) using BSA as standard (Sigma). The column Poros R1/10 10 μm (100×2 mm, Morvay Analytik) is kept at 60° C.; eluents are A: 0.1% trifluoroacetic acid (TFA) in H2O and B: 90% MeCN+0.09% TFA. A gradient of 20% B to 90% B is run within 20 min at a flow rate of 0.2 mL/min. The detection is monitored at 210 nm. Results are compiled in the following tables 5 and 6.

E. coli JM109 [1] = test: Growth and GFPuv expression in E. coli JM109, shake flask cultivation in mineral medium; conditions: additive 5 mM, 20 h, mean of two
Method: Precultures are prepared in 250 mL baffled shake flasks containing 25 mL sterile mineral medium [macronutrients in g/L: Glycerol (25), (NH4)2-citrate (1.0), Na2HPO4 2H2O (9.0), KH2PO4 (1.82), NH4Cl (1.52), MgSO4 (0.12), (NH4)2SO4 (0.6); Ampicillin ([…]); micronutrients in mg/L: Na2-EDTA (8.4), thiamine (4.5), Fe(III) citrate (12.5), Na2MoO4 2×H2O (2.5), H3BO3 (3), CoCl2 6×H2O (2.5), CuSO4 5×H2O (0.45) MnCl24×H2O (15), ZnCl2 (8) adjusted to pH 7.0]. Cultures are inoculated with 250 μL of a glycerol stock stored at −80° C. of E. coli JM109 (Promega Inc, Wallisellen, C H; Genotype: endA1, recA1, gyrA96, thi, hsdR17 (rk^−, mk^+), re/A1, supE44, Δ(lac-proAB), [F″ traD36, proAB, laql^qZΔM15]) harboring the plasmid pBAD-GFPuv (Biorad Inc., Reinach, C H; Genbank U62637.1, containing the GFPuv gene under control of the ara promoter; GFP=Green Fluorescent Protein). Precultures are incubated at 37° C. for 10-12 h.
Experimental cultures are performed in a volume of 25 mL of the above described medium in 250 mL baffled shake flasks. Stabilizers according to the invention are added to a final concentration of 5 mM as indicated from sterile stock solutions. Cultures are started by inoculating with the preculture to an optical density at 600 nm (OD600) of 0.25. Growth of the culture is monitored by reading optical density at 600 nm. Cultures are induced by adding L-arabinose to a final concentration of 0.2% (w/v) when the OD600 reaches 0.5. Samples of 1 mL are taken 6 and 20 h after induction for OD600 reading and GFP quantification. For GFP quantification 1 mL of the culture is harvested after 2-4 h and after 20 h after induction. Cells are collected by centrifugation at 16 000 g and the cell pellet is stored at −20° C. for further analysis.
as §1

E. coli JM109 [2] = test: Growth and GFP expression in high cell density fedbatch cultivation of E. coli JM109 in mineral medium; conditions: for Optical density Value / GFP expression (RFU/OD600) Value: additive 5 mM; for GFP expression Factor / Optical density Factor: relative to control = 1
Method: as §1
A first preculture of E. coli JM109 harboring the plasmid pBAD-GFPuv is initiated from glycerol stocks stored at −80° C. in 3 mL of LB medium containing 0.01% (v/v) Antifoam A (Fluka). After growth for 10-12 h it is used to seed 2×100 mL of mineral medium (as described in Example 1) containing 0.01% Antifoam A (silicone fluid containing a suspension of finely powdered silica to enhance its defoaming efficiency; Dow Corning Corporation, Midland, Mich., USA), in 1 L baffled shake flasks. After 10-12 h this culture is centrifuged resuspended in 50 mL mineral medium and is used to inoculate the main culture.
Cultivation is performed in BioFlow110 bioreactors (Total volume 2.2 L; New Brunswick Scientific, Nürtingen, Germany) filled with 1 L of mineral medium plus 0.01% (v/v) Antifoam A for the batch phase. Reactors are equipped with pH, pO2 and foam probes, mass flow controllers to control gas flow and ratio of air and pure oxygen and pumps for automated dosage of base (14% [v/v] aqueous NH3), antifoam (25% [v/v] Antifoam A) and nutrient feed solution. The agitation is set to 500 rpm and air is supplied at a gas flow rate of 2 L/min. The fedbatch culture is incoculated to an OD600 of 0.25-0.5 and allowed to grow unlimited with a specific growth rate of ˜0.5 h^−1. Growth is monitored by measuring OD600. When the disolved oxygen concentration decreases to 30%, automated adjustment of the air:oxygen ratio in the gas mix is started to control dO2 to 30% using a PID loop. When the gas mix consisted of 100% oxygen a further increase in oxygen transfer is achieved through increasing the agitation rate up to a maximum level of 1200 rpm. When glycerol in the batch medium is completely consumed, as indicated by a distinct drop of pure oxygen in the gas mix, feeding solutions (first containing 70 g/L glycerol and later as cell density increased 200 g/L glycerol in mineral medium) are pumped into the reactor by a predefined exponential fed scheme. The feeding rate is calculated to allow the cells to grow at a growth rate of approximately 0.15 h^−1. During the feeding phase dO2 is also kept at 30%. 3-6 h after starting the feeding protein expression is induced by the addition of 0.2 (w/v) L-arabinose. Samples are taken every hour for OD600 reading and to obtain cell pellets which are stored at −20° C. for further analysis. Analysis of in vivo GFP fluorescence is performed by the method described in Example 1.

[3] = Experiment 6, process time 24.75 h
[4] = Experiment 7, process time 17 h

Compound: CC1(C)CC(O)CC(C)(C)N1O [1,4-dihydroxy-2,2,6,6-tetramethylpiperidine]
- Growth (Final OD600) (E. coli BL21; Experiment 2, additive 5 mM, 20 h after induction, control 3.3): 3.19 OD600
- GFP expression (Relative fluorescence unit*OD600^−1) (E. coli BL21; Experiment 2, additive 5 mM, 20 h after induction, control 195): 222 Relative fluorescence unit*OD600^−1
- Effect on GFPuv expression and growth, in words (E. coli BL21; comment on Table 2): shows at least some effect and is not detrimental
- mg FimH/g cell (E. coli HM125; additive 5 mM): 1.1 mg FimH/g cell
- FimH (E. coli HM125; additive 5 mM): 9.1 ± 0.56 mg/L
- Cell pellet (E. coli HM125; additive 5 mM): 8.22 ± 0.35 g/L
- mg FimH/g cell (E. coli HM125; additive 10 mM): 1.22 mg FimH/g cell
- FimH (E. coli HM125; additive 10 mM): 9.59 ± 0.49 mg/L
- Cell pellet (E. coli HM125; additive 10 mM): 7.86 ± 0.25 g/L
- mg FimH/g cell (E. coli HM125; additive 20 mM): 1.26 mg FimH/g cell
- FimH (E. coli HM125; additive 20 mM): 10.08 ± 0.66 mg/L
- Cell pellet (E. coli HM125; additive 20 mM): 7.94 ± 0.33 g/L

Compound: CC1(C)CC(O)CC(C)(C)N1 [4-Hydroxy-2,2,6,6-tetramethyl-piperidine]
- Growth (Final OD600) (E. coli JM109 [1]; Experiment 2, control 11.0): 10.9 OD600
- GFP expression (Relative fluorescence unit*OD600^−1) (E. coli JM109 [1]; Experiment 2, control 1423): 1646 Relative fluorescence unit*OD600^−1
- Optical density Value (E. coli JM109 [2]; Experiment 6, process time 24.75 h, control 10.3): 24.7
- GFP expression (RFU/OD600) Value (E. coli JM109 [2]; Experiment 6, process time 24.75 h, control 1038): 5507 RFU/OD600
- GFP expression Factor (E. coli JM109 [2]; [3]): 5.3
- Optical density Factor (E. coli JM109 [2]; [3]): 2.39
- Optical density Value (E. coli JM109 [2]; Experiment 7, process time 17 h, control 56.4): 57.1
- GFP expression (RFU/OD600) Value (E. coli JM109 [2]; Experiment 7, process time 17 h, control 5765): 6438 RFU/OD600
- GFP expression Factor (E. coli JM109 [2]; [4]): 1.12
- Optical density Factor (E. coli JM109 [2]; [4]): 1.01

Compound: Tris(tetramethylhydroxypiperidinol) citrate
- Growth (Final OD600) (E. coli JM109 [1]; Experiment 3, control 10.4): 11.4 OD600
- GFP expression (Relative fluorescence unit*OD600^−1) (E. coli JM109 [1]; Experiment 3, control 1189): 2675 Relative fluorescence unit*OD600^−1
